Reference: patent US20080182859A1 (Curis, Inc., priority 2006, published 2008)
Structures can show the parent of a compound that is named as a salt.

Columns and labels:
Type in all cases: cell-based
sonic hedgehog pathway [1] = assay: Hedgehog pathway Gli-luciferase reporter assay, TM3 cells; details: TM3 mouse Leydig cells
How it was run: (§1)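 Reporter cells stably selected after gli-luciferase plasmid transfection; test article dosed over 11 points (1:3). Read as luminescence after 24 h treatment in 0.5% serum; activity >20% AMAX versus plate controls deemed active.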

sonic hedgehog pathway [2] = assay: Human hedgehog reporter assay Daoy-GliLuc (DGL); details: Daoy human medulloblastoma cells, Gli-luciferase reporter; read-out: Daoy Avg. EC50
How it was run: as §1

sonic hedgehog pathway [3] = assay: Human hedgehog reporter assay HEPM-GliLuc (HGL); details: HepM human embryonic palatal mesenchymal cells, Gli-luciferase reporter
How it was run: as §1

sonic hedgehog pathway [4] = assay: Hedgehog pathway Gli-luciferase reporter assay, S12 cells; details: S12 mouse embryonic mesenchymal cells, read-out: S12 Avg. EC50
How it was run: as §1

Measured: EC50

CN[C@H]1CC[C@@H](N(Cc2cc(-c3ccnc(C(N)=O)c3)ccc2OC)C(=O)c2sc3c(F)ccc(F)c3c2Cl)CC1 [354 (R17)]
< 50 nM: all assays above

CN[C@H]1CC[C@@H](N(Cc2cc(-c3cccnc3)ccc2OC)C(=O)c2sc3cccc(F)c3c2Cl)CC1 [360 (R16), 3-Chloro-4-fluoro-benzo[b]thiophene-2-carboxylic acid (2-methoxy-5-pyridin-3-yl-benzyl)-(4-methylamino-cyclohexyl)-amide dihydrochloride]
< 50 nM: all assays above

CN[C@H]1CC[C@@H](N(Cc2cc(-c3ccc(N)nc3)ccc2OC)C(=O)c2sc3cccc(F)c3c2Cl)CC1 [362 (R13), 3-Chloro-4-fluoro-benzo[b]thiophene-2-carboxylic acid [5-(6-amino-pyridin-3-yl)-2-methoxy-benzyl]-(4-methylamino-cyclohexyl)-amide dihydrochloride]
< 50 nM: all assays above

CN[C@H]1CC[C@@H](N(Cc2cc(-c3ccc(C(C)=O)cc3)ccc2OC)C(=O)c2sc3ccccc3c2Cl)CC1 [Compound 303, 3-Chloro-benzo[b]thiophene-2-carboxylic acid (4′-acetyl-4-methoxy-biphenyl-3-ylmethyl)-(4-methylamino-cyclohexyl)-amide hydrochloride]
< 50 nM: all assays above

CN[C@H]1CC[C@@H](N(Cc2cc(-c3ccc(C(C)=O)cc3)ccc2OC)C(=O)c2sc3c(F)ccc(F)c3c2Cl)CC1 [Compound 332, 3-Chloro-4,7-difluoro-benzo[b]thiophene-2-carboxylic acid (4′-acetyl-4-methoxy-biphenyl-3-ylmethyl)-(4-methylamino-cyclohexyl)-amide hydrochloride]
< 50 nM: all assays above

CN[C@H]1CC[C@@H](N(Cc2cc(-c3ccc(C(=O)N(C)C)cc3)ccc2OC)C(=O)c2sc3c(F)ccc(F)c3c2Cl)CC1 [Compound 333, 3-Chloro-4,7-difluoro-benzo[b]thiophene-2-carboxylic acid (4′-dimethylcarbamoyl-4-methoxy-biphenyl-3-ylmethyl)-(4-methylamino-cyclohexyl)-amide hydrochloride]
< 50 nM: all assays above

CN[C@H]1CC[C@@H](N(Cc2cc(-c3ccc(C)nc3)ccc2OC)C(=O)c2sc3c(F)ccc(F)c3c2Cl)CC1 [Compound 334, 3-Chloro-4,7-difluoro-benzo[b]thiophene-2-carboxylic acid [2-methoxy-5-(6-methyl-pyridin-3-yl)-benzyl]-(4-methylamino-cyclohexyl)-amide bis(trifluoroacetate)]
< 50 nM: all assays above

CN[C@H]1CC[C@@H](N(Cc2cc(-c3ccc(S(C)(=O)=O)cc3)ccc2OC)C(=O)c2sc3c(F)ccc(F)c3c2Cl)CC1 [Compound 335, 3-Chloro-4,7-difluoro-benzo[b]thiophene-2-carboxylic acid (4′-methanesulfonyl-4-methoxy-biphenyl-3-ylmethyl)-(4-methylamino-cyclohexyl)-amide hydrochloride]
< 50 nM: all assays above

CN[C@H]1CC[C@@H](N(Cc2cc(-c3ccc(N(C)C(C)=O)cc3)ccc2OC)C(=O)c2sc3c(F)ccc(F)c3c2Cl)CC1 [Compound 336, 3-Chloro-4,7-difluoro-benzo[b]thiophene-2-carboxylic acid [4′-(acetyl-methyl-amino)-4-methoxy-biphenyl-3-ylmethyl]-(4-methylamino-cyclohexyl)-amide hydrochloride]
< 50 nM: all assays above

CN[C@H]1CC[C@@H](N(Cc2cc(-c3ccc(CO)cc3)ccc2OC)C(=O)c2sc3c(F)ccc(F)c3c2Cl)CC1 [Compound 338, 3-Chloro-4,7-difluoro-benzo[b]thiophene-2-carboxylic acid (4′-hydroxymethyl-4-methoxy-biphenyl-3-ylmethyl)-(4-methylamino-cyclohexyl)-amide trifluoroacetate]
< 50 nM: all assays above

CN[C@H]1CC[C@@H](N(Cc2cc(-c3ccncc3)ccc2OC)C(=O)c2sc3c(F)ccc(F)c3c2Cl)CC1 [Compound 342, 3-Chloro-4,7-difluoro-benzo[b]thiophene-2-carboxylic acid (2-methoxy-5-pyridin-4-yl-benzyl)-(4-methylamino-cyclohexyl)-amide dihydrochloride]
< 50 nM: all assays above

CN[C@H]1CC[C@@H](N(Cc2cc(-c3ccc(C(N)=O)cc3)ccc2OC)C(=O)c2sc3cccc(F)c3c2Cl)CC1 [Compound 346, 3-Chloro-4-fluoro-benzo[b]thiophene-2-carboxylic acid (4′-carbamoyl-4-methoxy-biphenyl-3-ylmethyl)-(4-methylamino-cyclohexyl)-amide hydrochloride]
< 50 nM: all assays above

CN[C@H]1CC[C@@H](N(Cc2cc(-c3ccnc(C)c3)ccc2OC)C(=O)c2sc3cccc(F)c3c2Cl)CC1 [Compound 348, 3-Chloro-4-fluoro-benzo[b]thiophene-2-carboxylic acid [2-methoxy-5-(2-methyl-pyridin-4-yl)-benzyl]-(4-methylamino-cyclohexyl)-amide bis(trifluoroacetate)]
< 50 nM: all assays above

CNc1cc(-c2ccc(OC)c(CN(C(=O)c3sc4c(F)ccc(F)c4c3Cl)[C@H]3CC[C@@H](NC)CC3)c2)ccn1 [Compound 357, 3-Chloro-4,7-difluoro-benzo[b]thiophene-2-carboxylic acid [2-methoxy-5-(2-methylamino-pyridin-4-yl)-benzyl]-(4-methylamino-cyclohexyl)-amide bis(trifluoroacetate)]
< 50 nM: all assays above

CN[C@H]1CC[C@@H](N(Cc2cc(-c3ccncc3)ccc2OC)C(=O)c2sc3cccc(F)c3c2Cl)CC1 [Compound 359, 3-Chloro-4-fluoro-benzo[b]thiophene-2-carboxylic acid (2-methoxy-5-pyridin-4-yl-benzyl)-(4-methylamino-cyclohexyl)-amide dihydrochloride]
< 50 nM: all assays above

CN[C@H]1CC[C@@H](N(Cc2cc(-c3ccc(NS(C)(=O)=O)nc3)ccc2OC)C(=O)c2sc3c(F)ccc(F)c3c2Cl)CC1 [Compound R10, 3-Chloro-4,7-difluoro-benzo[b]thiophene-2-carboxylic acid [5-(6-methanesulfonylamino-pyridin-3-yl)-2-methoxy-benzyl]-(4-methylamino-cyclohexyl)-amide dihydrochloride]
< 50 nM: sonic hedgehog pathway [1] | sonic hedgehog pathway [3] | sonic hedgehog pathway [4]
